The test system of one assay is Peanut. Briefly: Test C pre-emergence on Fallsington silt loam soil. It counts as in vivo, peanuts. The conditions noted are these: 0.03 kg/ha, 28 days. The source says:
(§1) The high herbicidal activity of two of the compounds from within the scope of the invention is evident from the results obtained in this test. The experiment concerned pre-emergence applications on soil. The containers used were 25 cm diameter plastic pots filled with Fallsington silt loam. One set of pots was planted to weeds, the seeds of which were uniformly mixed with the top 1.2 cm layer of soil. The species selected were: johnsongrass (Sorghum halepense), barnyardgrass (Echinochloa crusgalli), crabgrass (Digitaria sanguinalis), giant foxtail (Setaria faberii), velvetleaf (Abutilon theophrasti), jimsonweed (Datura stramonium), mustard (Brassica arvensis), and pigweed (Amaranthus retroflexus). Another set of pots were planted to the following crops with from one to four species per pot: corn (planting depth 3.7 cm), cotton, soybeans, sunflower, Clinton oats, wheat, Black Valentine beans, rice, sorghum, peas, flax, and peanuts (all at 2.5 cm depth), cucumbers, cabbage, alfalfa, safflower, sugarbeets, tomato, spinach, barley, and Kentucky bluegrass (all at 1.2 cm depth). Immediately after planting, the test chemical was applied to the soil surfaces dissolved in a non-phytotoxic solvent. One pot from the weed phase and one of each of the crop species were left untreated for the purpose of comparison. […]

The next assay has as its system Oats. Briefly: Test C pre-emergence on Fallsington silt loam soil. It counts as in vivo, Clinton oats. The conditions noted are these: 0.03 kg/ha, 28 days.
From the text: as §1

The subject of assay [1] is Barley. Briefly: Test C pre-emergence on Fallsington silt loam soil. It counts as in vivo. To be noted: 0.03 kg/ha, 28 days. The source says: (§2) The high herbicidal activity of two of the compounds from within the scope of the invention is evident from the results obtained in this test. The experiment concerned pre-emergence applications on soil. The containers used were 25 cm diameter plastic pots filled with Fallsington silt loam. One set of pots was planted to weeds, the seeds of which were uniformly mixed with the top 1.2 cm layer of soil. The species selected were: johnsongrass (Sorghum halepense), barnyardgrass (Echinochloa crusgalli), crabgrass (Digitaria sanguinalis), giant foxtail (Setaria faberii), velvetleaf (Abutilon theophrasti), jimsonweed (Datura stramonium), mustard (Brassica arvensis), and pigweed (Amaranthus retroflexus). Another set of pots were planted to the following crops with from one to four species per pot: corn (planting depth 3.7 cm), cotton, soybeans, sunflower, Clinton oats, wheat, Black Valentine beans, rice, sorghum, peas, flax, and peanuts (all at 2.5 cm depth), cucumbers, cabbage, alfalfa, safflower, sugarbeets, tomato, spinach, barley, and Kentucky bluegrass (all at 1.2 cm depth). Immediately after planting, the test chemical was applied to the soil surfaces dissolved in a non-phytotoxic solvent. One pot from the weed phase and one of each of the crop species were left untreated for the purpose of comparison. The treated and untreated pots were promptly watered with approximatley 4 mm of simultated rainfall and then held in a greenhouse for several weeks. Visual weed and crop response ratings were made 28 days after treatment utilizing the rating system as described above for Test A. The data are given in Table C.

The next assay deals with Flax. Briefly: Test C pre-emergence on Fallsington silt loam soil. It counts as in vivo. To be noted: 0.03 kg/ha, 28 days.
From the text: as §2

The test system of assay [2] is Rice. Briefly: Test C pre-emergence on Fallsington silt loam soil. It counts as in vivo. The conditions noted are these: 0.03 kg/ha, 28 days.
From the text: as §2

Another assay has as its system Sunflower. Briefly: Test C pre-emergence on Fallsington silt loam soil. It counts as in vivo. To be noted: 0.03 kg/ha, 28 days.
From the text: as §2

A further assay concerns Tomato. Briefly: Test C pre-emergence on Fallsington silt loam soil. It counts as in vivo. To be noted: 0.03 kg/ha, 28 days.
From the text: as §2

The subject of assay [3] is Wheat. Briefly: Test C pre-emergence on Fallsington silt loam soil. It counts as in vivo. The conditions noted are these: 0.03 kg/ha, 28 days.
From the text: as §2

The subject of a further assay is Cucumber. Briefly: Test C pre-emergence on Fallsington silt loam soil. It counts as in vivo, cucumbers. The conditions noted are these: 0.03 kg/ha, 28 days.
From the text: as §1

The subject of a further assay is Broadleaves. Briefly: Test C pre-emergence on Fallsington silt loam soil. It counts as in vivo, velvetleaf, jimsonweed, mustard, pigweed. To be noted: 28 days.
From the text: as §1

Assay [4] has as its system Wheat. Briefly: Test D pre-/post-emergence weed control in cereals. It counts as in vivo, Triticum aestivum. To be noted: 20 days. The source says:
(§3) Two ten-inch in diameter plastic pans lined with polyethylene liners were filled with prepared Fallsington slit loam soil. One pan was planted with seeds of wheat (Triticum aestivum), barley (Hordeum vulgarel, wild oats (Avena fatua), downy brome (Bromus tectorum), cheatgrass (Bromus secalinus), blackgrass (Alopecurus myosuroides), annual bluegrass (Poa annual, green foxtail (Setaria viridis), quack grass (Agropyron repens), Italian ryegrass (Lolium multiflorum) and ripgut brome (Bromus rigidus). The other pan was planted with seeds of Russian thistle (Salsola kali), tansy mustard (Descuraina pinnata), smartweed (Polygonum pensylvanicum), tumble mustard (Sisymbrium altissium) kochia (Kochia scoparia), shepherd's purse (Capsella bursa-pastoris), Matricaria inodora, black nightshade (Solanum nigrum), yellow rocket (Barbarea vulgaris), wild mustard (Brassica kaber) and wild buckwheat (Polygonum convolvulus). The above two pans were treated pre-emergence. At the same time two pans in which the above plant species were growing were treated post-emergence. Plant height at the time of treatment ranged from 1-15 cm depending on plant species.
(§4) The compounds applied were diluted with a non-phytotoxic solvent and sprayed over-the-top of the pans. An untreated control and a solvent alone control were included for comparison. All treatments were maintained in the greenhouse for 20 days at which time the treatments were compared to the controls and the effects visually rated. The recorded data, presented in Table D, indicate that certain compounds from within the scope of the invention have utility for pre- and/or post-emergence weed control in cereal crops such as wheat and barley.

Assay [5] deals with Barley. Briefly: Test D pre-/post-emergence weed control in cereals. It counts as in vivo, Hordeum vulgarel. To be noted: 20 days.
From the text: as §3, §4

Another assay deals with Downy Brome. Briefly: Test D pre-/post-emergence weed control in cereals. The conditions noted are these: 20 days. It counts as in vivo, Bromus tectorum.
From the text: as §3, §4

For the next assay, the system named is Tansy Mustard. Briefly: Test D pre-/post-emergence weed control in cereals. It counts as in vivo, Descuraina pinnata. To be noted: Pre-Emergence; 0.015 kg/ha; 20 days.
From the text: as §3, with “Plant height at the time of treatment ranged from 1-15 cm depending on plant species.” left out
(§5) The compounds applied were diluted with a non-phytotoxic solvent and sprayed over-the-top of the pans. […] The recorded data, presented in Table D, indicate that certain compounds from within the scope of the invention have utility for pre- and/or post-emergence weed control in cereal crops such as wheat and barley.

A further assay deals with Kochia. Briefly: Test D pre-/post-emergence weed control in cereals. The conditions noted are these: 20 days. It counts as in vivo, Kochia scoparia.
From the text: as §3, §4

The test system of another assay is Shepherd's Purse. Briefly: Test D pre-/post-emergence weed control in cereals. It counts as in vivo, Capsella bursa-pastoris. To be noted: 20 days.
From the text: as §3, with “Plant height at the time of treatment ranged from 1-15 cm depending on plant species.” left out
as §5

Another assay deals with Wild Buckwheat. Briefly: Test D pre-/post-emergence weed control in cereals. It counts as in vivo, Polygonum convolvulus. The conditions noted are these: Pre-Emergence; 0.015 kg/ha; 20 days.
From the text: as §3, with “Plant height at the time of treatment ranged from 1-15 cm depending on plant species.” left out
as §5

For another assay, the system named is Arrowhead. Briefly: Test E application to paddy water after transplanting of rice. It counts as in vivo, Sagittaria spp. From the text: Test samples were formulated and applied directly to the paddy water three days after transplanting of rice. The test was maintained in a greenhouse, and plant response ratings were taken at the stated intervals after application.

Assay [6] has as its system Rice. Briefly: Test F over-the-top soil/foliage treatment. It counts as in vivo. To be noted: soil/foliage spray, ~14 days. Put shortly:
(§6)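 Visual injury ratings, made about fourteen days after spraying by comparison with untreated plants, reflect an over-the-top application of compound in non-phytotoxic solvent. Spraying took place roughly 14 days after seeding into Woodstown sandy loam under greenhouse conditions.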

The subject of the next assay is Soybeans. Briefly: Test F over-the-top soil/foliage treatment. It counts as in vivo. The conditions noted are these: for Soybeans response rating: soil/foliage spray, ~14 days. Put shortly: as §6

`COc1cc(OC)nc(NC(=O)NS(=O)(=O)c2ccccc2OS(C)(=O)=O)n1` [Compound 1, N-[(4,6-Dimethoxypyrimidin-2-yl)aminocarbonyl]-2-hydroxybenzenesulfonamide, methanesulfonate] returned a Peanut response rating in the assay on Peanut of 6G. Moreover, the Oats response rating with Oats came to 4G. In the assay on Barley [1], this molecule showed a Barley response rating of 3G. Also, the Flax response rating in the assay with Flax is given as 6G. The Rice response rating with Rice [2] is given as 6G. Further, the Sunflower response rating in the assay with Sunflower was determined as 5G. In the assay on Tomato, this molecule had a Tomato response rating of 4G. The same molecule yielded a Wheat response rating in the assay on Wheat [3] of 2G. The molecule further returned a Cucumber response rating with Cucumber of 5G. Also, the Broadleaves response rating in the assay with Broadleaves (0.0035 kg/ha) came to 3G; in the assay on Broadleaves (0.0075 kg/ha), 4G.
`CCCS(=O)(=O)Oc1ccccc1S(=O)(=O)NC(=O)Nc1nc(OC)cc(OC)n1` [Compound 36, N-[(4,6-dimethoxypropimidin-2-yl)aminocarbonyl]-2-hydroxybenzenesulfonamide, 1-propanesulfonate]: the Wheat response rating in the assay with Wheat [4] (Post-Emergence, 0.015 kg/ha) was 0; in the assay on Wheat [4] (Post-Emergence, 0.06 kg/ha) it was 0; in the assay on Wheat [4] (Pre-Emergence, 0.015 kg/ha), 0; in the assay on Wheat [4] (Pre-Emergence, 0.06 kg/ha) it was 0. The Barley response rating in the assay with Barley [5] (Post-Emergence, 0.015 kg/ha) is recorded as 0; in the assay on Barley [5] (Post-Emergence, 0.06 kg/ha), 0; in the assay with Barley [5] (Pre-Emergence, 0.015 kg/ha), 0; in the assay on Barley [5] (Pre-Emergence, 0.06 kg/ha) it was 0. The “Downy Brome response rating” value in the assay on Downy Brome (Post-Emergence, 0.015 kg/ha) is 0; in the assay with Downy Brome (Post-Emergence, 0.06 kg/ha) it was 3G; with Downy Brome (Pre-Emergence, 0.015 kg/ha) it was 3G; with Downy Brome (Pre-Emergence, 0.06 kg/ha), 6G. The “Tansy Mustard response rating” value in the assay with Tansy Mustard was found to be 2G. Also, the Kochia response rating is given as 0 in the assay on Kochia (Post-Emergence, 0.015 kg/ha); 0 with Kochia (Post-Emergence, 0.06 kg/ha); 0 with Kochia (Pre-Emergence, 0.015 kg/ha). Besides, the “Shepherd's Purse response rating” value in the assay with Shepherd's Purse (Post-Emergence, 0.06 kg/ha) is listed as 10C; with Shepherd's Purse (Pre-Emergence, 0.015 kg/ha), 7G. For the same molecule, the “Wild Buckwheat response rating” value in the assay on Wild Buckwheat was 3G. For the same molecule, the “Arrowhead*** 8 Weeks” value with Arrowhead (25 g/ha in paddy water) and with Arrowhead (100 g/ha in paddy water) was 0 throughout.
Turning to `CCCS(=O)(=O)Oc1ccccc1S(=O)(=O)NC(=O)Nc1nc(C)nc(OC)n1` [Compound 39, 2-hydroxy-N-[(4-methoxy-6-methyl-1,3,5-triazin-2-yl)aminocarbonyl]benzenesulfonamide, 1-propanesulfonate], the Rice response rating was found to be 2G in the assay with Rice [6] (0.007 kg/ha), 4G in the assay on Rice [6] (0.03 kg/ha), 0 with Rice [6] (0.06 kg/ha) and 0 in the assay with Rice [6] (0.12 kg/ha). The “post-emergence control of weeds in soybeans” value in the assay on Soybeans (conclusion from Test F) is given as “has utility for the post-emergence control of weeds in soybeans”. The results for the Soybeans response rating with Soybeans (0.007 kg/ha) and in the assay with Soybeans (0.03 kg/ha) were 0 and 4G, respectively.

Source of the values: patent EP0044212B1, “Herbicidal o-alkylsulfonyloxy- and o-alkylsulfonylamino-benzenesulfonamides” (E.I. DU PONT DE NEMOURS AND COMPANY, priority 1980, dated 1982).
